The numbers were not newly measured in patent US6376468B1, “Protein:prenyl transferase inhibitors” (Nederlandse Organisatie Voor …, priority 1999, dated 2002), which cites them from elsewhere.

One may read the IC50 as the concentration at which inhibition is half-maximal.

In the data set the target is T1, Ras farnesyl transferase from human colon carcinoma (Homo sapiens, UniProt P49354+P49356).
T1 construct: host or cells: human colon carcinoma
To be noted: J. Biol. Chem. 268 (1993), 20695-98.

As for `CSCCC(NC(=O)c1cccc(CNC(=O)C(N)CS)c1)C(=O)O` (stereo not shown) [Cys-NH-CH2-mC6H4-CO-Met], the half-maximal inhibitory concentration (IC50) was 60 nM.
